“And” between values parts separate entries of the source, which are not always exact repeats. Identical values can stand only once. Like-named read-outs stand apart in the source and are kept apart here. Residues, ends and D or L forms follow the SMILES beside them. *: point of attachment. Cbz = O=C(OCc1ccccc1)*
Tests used:
[1] = tested on: nuclear p27 in LNCaP-S14 cells; format: cell-based, human; conditions: primary screening
[2] = target: PDGF receptor tyrosine kinase; conditions: vendor annotation of library compound (Biomol EI-215); cited from earlier work
[3] = tested on: p27 protein levels in HeLa cells; assay: Immunoblot quantification of p27, HeLa; format: cell-based, human
Protocol: (§1) Total cell lysate from cells treated with vehicle (DMSO) or compounds were obtained by incubating cells in lysis buffer (25 mM Tris-HCl pH 7.4, 150 mM NaCl, 0.5% Triton X-100, protease inhibitors) for 15 min at 4°C. The supernatant was collected by centrifugation and the amount of protein was determined with a Bio-Rad protein assay (Bio-Rad) using BSA as standard. Equal amounts of protein were subjected to SDS-PAGE (4%-20% gels, Invitrogen) and transferred to PVDF membranes. The membranes were blocked with TBST (50 mM Tris-HCl pH 7.5, 150 mM NaCl, 0.05% Tween-20) containing 5% non-fat dry milk or bovine serum albumin (BSA) for 1 h at room temperature, followed by incubation in primary antibodies 4°C overnight. Membranes were washed and incubated with secondary antibodies conjugated to HRP (Jackson ImmunoResearch Laboratories) for 1 h at room temperature. Signals were visualized using the ECL Western Blotting Substrate (Pierce Biotechnology, IL, USA) according to the manufacturer's instructions. Membranes were stripped using Restore™ Western Blot Stripping Buffer (Pierce Biotechnology). Films were scanned and quantification of the bands was performed using Image J software http://rsbweb.nih.gov/ij/.

[4] = tested on: p27 protein levels in PC3 cells; assay: Immunoblot quantification of p27, PC3; format: cell-based, human
Protocol: as §1

[5] = tested on: polyubiquitylated proteins in LNCaP-S14 cells; assay: Anti-ubiquitin immunoblot of total lysate; format: cell-based, human; conditions: LNCaP-S14, SMIPs 20 and 40 μM, MG132 20 μM, bortezomib 100 nM, 24 h
Protocol: as §1

[6] = tested on: p27 protein levels in DU145 cells; assay: Immunoblot quantification of p27, DU145; format: cell-based, human
Protocol: as §1

[7] = tested on: p27 protein levels in LNCaP cells; assay: Immunoblot quantification of p27, LNCaP; format: cell-based, human
Protocol: as §1

[8] = tested on: p21 protein levels in PC3 cells; assay: Immunoblot quantification of p21, PC3; format: cell-based, human
Protocol: as §1

[9] = tested on: p27 protein levels in LNCaP-S14 cells; assay: Immunoblot quantification of p27, LNCaP-S14; format: cell-based, human
Protocol: as §1

[10] = tested on: p27 protein levels in IMR90 cells; assay: Immunoblot quantification of p27, IMR90; format: cell-based, human
Protocol: as §1

[11] = tested on: p21 protein levels in HeLa cells; assay: Immunoblot quantification of p21, HeLa; format: cell-based, human
Protocol: as §1

[12] = tested on: p21 protein levels in DU145 cells; assay: Immunoblot quantification of p21, DU145; format: cell-based, human
Protocol: as §1

[13] = tested on: p21 protein levels in IMR90 cells; assay: Immunoblot quantification of p21, IMR90; format: cell-based, human
Protocol: as §1

[14] = tested on: p21 protein levels in LNCaP cells; assay: Immunoblot quantification of p21, LNCaP; format: cell-based, human
Protocol: as §1

[15] = MTT cytotoxicity assay, IMR90; format: cell-based; conditions: human, IMR90, 0.01 - 40 μM, 72 h
Protocol: (§3) LNCaP-S14 (10,000 cells), PC3, DU145 or IMR90 cells (5000 cells) were seeded in 96-well plates and treated with increasing concentrations of the respective SMIPs for 72 h. Cell viability was assessed using the MTT cell proliferation assay (ATCC®, Middlesex, UK) according to the manufacturer's protocol. IC50 was calculated using the BioDataFit 1.02 software http://www.changbioscience.com/stat/ec50.html.

[16] = tested on: LNCaP-S14 cells; assay: MTT cytotoxicity assay, LNCaP-S14; conditions: Homo sapiens, 72 h, read-out: IC50 (MTT cytotoxicity)
Protocol: as §3

[17] = tested on: p27 stability in LNCaP-S14 cells; assay: Protein half-life by cycloheximide chase; format: cell-based, human; conditions: human
Protocol: LNCaP-S14 cells were treated with SMIPs (40 μM) for 18 h followed by the addition of 100 μg/mL cycloheximide (CHX). Cell extracts were obtained as described above at different times after CHX addition. Protein lysate was subjected to SDS-PAGE and immunoblotting for p27, p21 and SKP2. Tubulin was used as loading control. Protein half-lives were calculated using a web based calculator http://www.1728.com/halflife.htm.

[18] = tested on: DU145 cells; assay: Cell cycle analysis by flow cytometry, DU145; format: cell-based, human
Protocol: (§2) Cells were exposed to SMIPs (40 μM) for 24 h and 48 h. Cells were trypsinized, washed with PBS and suspended in 600 μL PBS. Cells were fixed by adding 1.4 mL cold absolute ethanol and kept at -20°C for at least 12 h. After washing once with PBS, the cells were resuspended in 250 μL PBS containing 2.5 μg RNAse A and incubated for 45 min at room temperature. Staining was done by adding 40 μg/mL of propidium iodine followed by incubation for 15 min at room temperature. DNA-bound fluorescence was read at 564 to 606 nm using FACSort and FACSCanto flow cytometers (BD Biosciences) at the Flow Cytometry Facility of the Sanford-Burnham Medical Research Institute. Distribution of cells in the different cell cycle phase was determined with ModFit LT 3.2.1 or FlowJo 8.6 software. Aggregates were excluded from the analysis manually using pulse shape or identified by automated modelling in ModFit LT.

[19] = tested on: LNCaP-S14 cells; assay: Cell cycle analysis by flow cytometry, LNCaP-S14; format: cell-based, human
Protocol: as §2

[20] = tested on: LNCaP-S14 cells; assay: Cell cycle distribution in LNCaP-S14 transfected with siRNAs for p27 and p21; format: cell-based, human
Protocol: as §2
LNCaP-S14 cells were seeded in 6 cm dishes or six-well-plates coated with poly-lysine the day before transfection. 10-20 nM of siRNA was transfected using DharmaFECT 3 (Thermo Scientific) according to the manufacturer's instructions. Briefly, siRNAs were dissolved in siRNA suspension buffer (Quiagen) at 20 μM, heated to 90°C for 1 min and incubated at 37°C for 1 h. siRNAs were added to the DharmaFECT 3 reagent diluted in Optimem media (1:100) and incubated for 20 min at room temperature. The mix was added to the cells for 24 h. Treatment with SMIPs (40 μM) or vehicle was carried on for another 24 h. Cells were obtained for FACS or lysed for immunoblotting analysis as described above. Untransfected cells as well as cells transfected with non-specific siRNA were used as controls. Silencer® Negative Control siRNA No.1 from Ambion (Applied Biosciences, CA, USA) was used as non-specific control siRNA. siRNA target sequences for p27 and p21 synthesized by IDT (Integrated DNA Technologies Inc, Iowa, USA) were as follows; p27 siRNA: […], and p21 siRNA: […] [56].

[21] = tested on: p21 protein levels in LNCaP-S14 cells; assay: Immunoblot quantification of p21, LNCaP-S14; format: cell-based, human
Protocol: as §1

[22] = tested on: SKP2 levels in LNCaP-S14 cells; format: cell-based, human
[23] = tested on: DU145 cells; assay: MTT cytotoxicity assay, DU145; conditions: Homo sapiens, read-out: IC50 (MTT cytotoxicity)
Protocol: as §3

[24] = tested on: LNCaP-S14 cells; assay: Cell Death Detection ELISA (cytoplasmic histone-associated DNA fragments); format: cell-based, human
Protocol: Apoptosis was measured using the Cell Death Detection ELISA (Roche, Basel, Switzerland) following the manufacturer's instructions. Briefly, LNCaP-S14 cells (0.1 × 10^6) were seeded in 12-well plates and treated with SMIPs (40 μM) for 24 h. Cells were collected in medium, spun at 1000 rpm, and resuspended in 1 mL PBS at the specified time points (day 1 to day 3). The cell suspension was divided into two parts. The first half was used for determination of cytoplasmic histone-associated DNA fragments (ELISA), the second for protein determination to normalize the ELISA data to the amount of input protein.

[25] = tested on: IMR90 cells; assay: Cell cycle analysis by flow cytometry, IMR90; format: cell-based, human
Protocol: as §2

[26] = tested on: LNCaP cells; assay: Cell cycle analysis by flow cytometry, LNCaP; format: cell-based, human
Protocol: as §2

[27] = tested on: PC3 cells; assay: MTT cytotoxicity assay, PC3; conditions: Homo sapiens, read-out: IC50 (MTT cytotoxicity)
Protocol: as §3

[28] = tested on: LNCaP-WT cells; assay: MTT cytotoxicity assay, LNCaP-WT; conditions: Homo sapiens, read-out: IC50 (MTT cytotoxicity)
Protocol: as §3

[29] = tested on: PC3 cells; assay: Cell cycle analysis by flow cytometry, PC3; format: cell-based, human
Protocol: as §2

[30] = HeLa, 24 h, SMIPs 40 μM, MG132 20 μM, bortezomib 100 nM
[31] = PC3, 24 h, SMIPs 40 μM, MG132 20 μM, bortezomib 100 nM
[32] = DU145, 24 h, SMIPs 40 μM, MG132 20 μM, bortezomib 100 nM
[33] = LNCaP, 24 h, SMIPs 40 μM, MG132 20 μM, bortezomib 100 nM
[34] = LNCaP-S14, 24 h, SMIPs 40 μM, MG132 20 μM, bortezomib 100 nM
[35] = IMR90, 24 h, SMIPs 40 μM, MG132 20 μM, bortezomib 100 nM

CC(C)(C)c1cc(C=C(C#N)C#N)cc(C(C)(C)C)c1O [1362L21]
Z score (aver) ([1]; nuclear p27 in LNCaP-S14 cells): 6.21
Clasf ([1]; S = strong, M = medium, W = weak by Z score): S (strong (Z score > 5))
IC50 [2]: 1200 nM

CC(C)C[C@H](NC(=O)[C@H](Cc1ccccc1)NC(=O)c1cnccn1)B(O)O [Bortezomib, reference compound]
p27 protein level (immunoblot, DMSO = 1.0) [3, 30]: 1.3 ± 0.2
p27 protein level (immunoblot, DMSO = 1.0) [4, 31]: 2.5 ± 1.0
accumulation of polyubiquitylated proteins [5]: readily seen
p27 protein level (immunoblot, DMSO = 1.0) [6, 32]: 1.7 ± 0.5
p27 protein level (immunoblot, DMSO = 1.0) [7, 33]: 2.1
p21 protein level (immunoblot, DMSO = 1.0) [8, 31]: 4.7 ± 1.4
p27 protein level (immunoblot, DMSO = 1.0) [9, 34]: 1.8
p27 protein level (immunoblot, DMSO = 1.0) [10, 35]: 1.8 ± 0.0
p21 protein level (immunoblot, DMSO = 1.0) [11, 30]: 2.2 ± 0.8
p21 protein level (immunoblot, DMSO = 1.0) [12, 32]: 2.5 ± 0.4
p21 protein level (immunoblot, DMSO = 1.0) [13, 35]: 1.8 ± 0.4

CC(C)C[C@@H](C=O)NC(=O)[C@H](CC(C)C)NC(=O)[C@H](CC(C)C)NC(=O)OCc1ccccc1 [MG132, reference compound] (Cbz-Leu-Leu-Leu-aldehyde)
p21 protein level (immunoblot, DMSO = 1.0) ([14]; LNCaP, 24 h, SMIPs 40 μM, MG132 20 μM): 2.9
p27 protein level (immunoblot, DMSO = 1.0) [3, 30]: 2.2 ± 0.9
p27 protein level (immunoblot, DMSO = 1.0) [4, 31]: 2.0 ± 1.0
accumulation of polyubiquitylated proteins [5]: readily seen
p27 protein level (immunoblot, DMSO = 1.0) [6, 32]: 2.4 ± 0.1
p27 protein level (immunoblot, DMSO = 1.0) [7, 33]: 1.9 ± 0.1
IC50 [15]: 445 nM
p21 protein level (immunoblot, DMSO = 1.0) [8, 31]: 4.1 ± 0.4
IC50 [16]: 379 nM
p27 protein level (immunoblot, DMSO = 1.0) [9, 34]: 1.5
p27 protein level (immunoblot, DMSO = 1.0) [10, 35]: 0.9 ± 0.5
p21 protein level (immunoblot, DMSO = 1.0) [11, 30]: 5.9 ± 1.7
p21 protein level (immunoblot, DMSO = 1.0) [12, 32]: 3.1

CCCCc1ccc(NC(C)=O)c(C)c1 [SMIP004]
p21 protein level (immunoblot, DMSO = 1.0) [14]: 2.7 ± 0.1
p27 half-life [17]: > 6 h
Cell cycle distribution G1 [18]: 75.7 and 79.7
Cell cycle distribution G2 [18]: 8.0 and 10.4
Cell cycle distribution S [18]: 14.1 and 9.0
p27 protein level (immunoblot, DMSO = 1.0) [3]: 1.1 ± 0.2
p27 protein level (immunoblot, DMSO = 1.0) [4]: 1.1 ± 0.3
Cell cycle distribution G1 [19]: 72.3 and 75.8
Cell cycle distribution G2 [19]: 7.1 and 6.4
Cell cycle distribution S [19]: 19.1 and 14.7
% G1 [20]: 66.92% and 62.86% and 69.79% and 66.56%
% G2 [20]: 13.34% and 17.13% and 13.32% and 15.94%
% S [20]: 19.75% and 20.02% and 16.90% and 17.50%
p21 protein level (immunoblot, DMSO = 1.0) [21]: 2.8 ± 0.7
SKP2 levels (endogenous and exogenous) by immunoblotting [22]: decrease
IC50 ([23]; DU-145, 72 h): > 80000 nM
IC50 ([23]; DU-145, 96 h): > 80000 nM
increase in the amount of mono and oligonucleosomes [24]: three- to fivefold
Cell cycle distribution G1 [25]: 68.6 and 77.6
Cell cycle distribution G2 [25]: 13.2 and 10.9
Cell cycle distribution S [25]: 18.2 and 11.5
Cell cycle distribution G1 [26]: 81.7 and 87.3
Cell cycle distribution G2 [26]: 9.8 and 6.6
p27 protein level (immunoblot, DMSO = 1.0) [6]: 1.3 ± 0.1
IC50 ([27]; PC-3, 72 h): > 80000 nM
IC50 ([27]; PC-3, 96 h): > 80000 nM
p27 protein level (immunoblot, DMSO = 1.0) [7]: 2.1 ± 1.1
p21 protein level (immunoblot, DMSO = 1.0) [8]: 1.7 ± 0.9
IC50 [16]: 1090 nM
p27 accumulation by immunoblotting [9]: ~ threefold
p27 protein level (immunoblot, DMSO = 1.0) [9]: 2.4 ± 0.7
p27 protein level (immunoblot, DMSO = 1.0) [10]: 1.2 ± 0.3
p21 protein level (immunoblot, DMSO = 1.0) [11]: 1.1 ± 0.1
p21 protein level (immunoblot, DMSO = 1.0) [12]: 1.7 ± 0.5
IC50 ([28]; 72 h): 40000 nM
IC50 ([28]; 96 h): 2400 nM
p21 protein level (immunoblot, DMSO = 1.0) [13]: 1.1 ± 0.0
Cell cycle distribution G1 [29]: 58.5 and 65.8
Cell cycle distribution G2 [29]: 25.7 and 24.3
Cell cycle distribution S [29]: 14.3 and 8.5

Source: paper PMC3025922 (BMC Biology, 2010)
